Results as given in ChEMBL document CHEMBL3244035, “Synthesis and hypoglycemic activity of 4-substituted 3-mercaptopicolinic acids” (J Med Chem, 1977).
The source made the active and inactive calls. The rule behind the calls is not given here.

Tested on: Rattus norvegicus
Experiment: Hypoglycemic activity in 48 hrs fasted rat assessed as reduction in blood glucose at 150 mg/kg, po measured 1 to 4 hrs post challenge
Assay type: functional, organism-based
Set-up: dose 150 mg/kg

Row | Structure (SMILES) | Activity
1 | O=C(O)c1nccc(S)c1S | inactive
2 | COc1ccnc(C(=O)O)c1S | inactive
3 | Nc1ccnc(C(=O)O)c1S | inactive
4 | CSc1ccnc(C(=O)O)c1S | inactive
5 | CCc1ccnc(C(=O)O)c1S | inactive
6 | O=C(O)c1nccc(Oc2ccccc2)c1S | inactive
7 | O=C(O)c1nccc(Cl)c1S | inactive
